Assay results from PMC6514978, “Synthesis, Antibacterial Activities, Mode of Action and Acute Toxicity Studies of New Oxazolidinone-Fluoroquinolone Hybrids” (Molecules, 2019).
In brackets after ≈: the same amount, converted by molar mass.

Tests used:
VRE (13B330) = assay: MIC, broth microdilution (CLSI), clinical isolate; type: cell-based, vancomycin-resistant enterococcus; conditions: Enterococcus
From the text: (§1) 6 standard strains and 3 clinical isolates were used to the preliminary evaluation of in vitro antibacterial activities of oxazolidinone-fluoroquinolone hybrids. For the further evaluation of hybrids OBP-4 and OBP-5, 263 clinical isolates including S. aureus (46), S. haemolyticus(32), S. epidermidis (10), E. faecalis (72), E. faecium (47), S. pneumoniae (13), H. parasuis (34), S. suis (9), and 8 resistant strains including MRSA, MRSE, CIP-resistant S. aureus and S. haemolyticus, VAN and quinolone-resistant S. pneumoniae, LZD-resistant E. faecalis, LZD/VAN and quinolone-resistant E. faecium were collected and tested.
(§2) Susceptibility testing of oxazolidinone-fluoroquinolone hybrids against various bacteria was performed by the broth microdilution method as outlined by the Clinical and Laboratory Standards Institute (CLSI). Three types of media, including cation-adjusted Mueller Hinton broth, Haemophilus Test Medium and cation-adjusted Mueller Hinton broth that contained 3%–5% lysed horse blood, were used to culture the corresponding bacteria. All compounds including comparator drugs were dissolved in an appropriate solvent at a concentration of 2.048 mg/mL and then serially diluted two-fold to provide the required concentrations. A final inoculum of 5 × 10^5 CFU/mL was used and plates were read after incubation for 16–24 h at 35 °C. […] Standard quality control strains (ATCC) were included throughout. Each determination was repeated in triplicate.

E. coli (ATCC25922) = assay: MIC, broth microdilution (CLSI), standard strain; type: cell-based; conditions: Escherichia coli; E. coli (ATCC25922); read-out: MIC
From the text: as §1, §2

E. faecalis (ATCC29212) = assay: MIC, broth microdilution (CLSI), standard strain; type: cell-based; conditions: Enterococcus faecalis; E. faecalis (ATCC29212); read-out: MIC
From the text: as §1, §2

[1] = tested on: H. influenzae (ATCC49247); assay: MIC, broth microdilution (CLSI), standard strain; type: cell-based; conditions: Haemophilus influenzae
From the text: as §1, §2

[2] = tested on: P. Aeruginosa (ATCC27853); assay: MIC, broth microdilution (CLSI), standard strain; type: cell-based; conditions: Pseudomonas aeruginosa; P. Aeruginosa (ATCC27853); read-out: MIC
From the text: as §1, §2

S. aureus (ATCC29213) = assay: MIC, broth microdilution (CLSI), standard strain; type: cell-based; conditions: Staphylococcus aureus
From the text: as §1, §2

[3] = tested on: S. pneumoniae (ATCC49619); assay: MIC, broth microdilution (CLSI), standard strain; type: cell-based; conditions: Streptococcus pneumoniae
From the text: as §1, §2

[4] = tested on: S. epidermidis (10) clinical isolates; assay: Susceptibility of clinical isolates (MIC); type: cell-based, Staphylococcus epidermidis; conditions: for Cumulative % of strains inhibited at MIC / No. of strains inhibited at MIC: S. epidermidis (10); for MIC50 / MIC90 / MIC: Staphylococcus epidermidis, S. epidermidis, 10 clinical isolates; for MIC50: read-out: MIC50; for MIC90: read-out: MIC90; for MIC: read-out: MIC Range
Method: as §2, with “All compounds including comparator drugs were dissolved in an appropriate solvent at a concentration of 2.048 mg/mL and then serially diluted two-fold to provide the required concentrations.” left out

[5] = tested on: E. faecium (47) clinical isolates; assay: Susceptibility of clinical isolates (MIC); type: cell-based, Enterococcus faecium; conditions: for Cumulative % of strains inhibited at MIC / No. of strains inhibited at MIC: E. faecium (47); for fold higher activity than comparator agents: E. faecium clinical isolates
Method: as §2, with “All compounds including comparator drugs were dissolved in an appropriate solvent at a concentration of 2.048 mg/mL and then serially diluted two-fold to provide the required concentrations.” left out

MRSE = assay: MIC against drug-resistant strain; type: cell-based, S. epidermidis; conditions: Staphylococcus epidermidis, read-out: MIC
Method: (§3) 6 standard strains and 3 clinical isolates were used to the preliminary evaluation of in vitro antibacterial activities of oxazolidinone-fluoroquinolone hybrids.
as §2, with “All compounds including comparator drugs were dissolved in an appropriate solvent at a concentration of 2.048 mg/mL and then serially diluted two-fold to provide the required concentrations.” left out

[6] = tested on: LZD-resistant E. faecalis; assay: microbe, parasite or virus in culture; type: cell-based; conditions: Enterococcus faecalis
Method: as §3
as §2, with “All compounds including comparator drugs were dissolved in an appropriate solvent at a concentration of 2.048 mg/mL and then serially diluted two-fold to provide the required concentrations.” left out

CIP-resistant S. aureus = assay: MIC against drug-resistant strain; type: cell-based; conditions: Staphylococcus aureus; S. aureus, CIP-resistant; read-out: MIC
Method: as §3
as §2, with “All compounds including comparator drugs were dissolved in an appropriate solvent at a concentration of 2.048 mg/mL and then serially diluted two-fold to provide the required concentrations.” left out

[7] = tested on: CIP-resistant S. haemolyticus; assay: MIC against drug-resistant strain; type: cell-based; conditions: Staphylococcus haemolyticus; S. haemolyticus, CIP-resistant; read-out: MIC
Method: as §3
as §2, with “All compounds including comparator drugs were dissolved in an appropriate solvent at a concentration of 2.048 mg/mL and then serially diluted two-fold to provide the required concentrations.” left out

[8] = tested on: LZD and quinolone-resistant E. faecium; assay: MIC against drug-resistant strain; type: cell-based; conditions: Enterococcus faecium; E. faecium, LZD and quinolone-resistant; read-out: MIC
Method: as §3
as §2, with “All compounds including comparator drugs were dissolved in an appropriate solvent at a concentration of 2.048 mg/mL and then serially diluted two-fold to provide the required concentrations.” left out

MRSA = assay: MIC against drug-resistant strain; type: cell-based; conditions: Staphylococcus aureus, read-out: MIC
Method: as §3
as §2, with “All compounds including comparator drugs were dissolved in an appropriate solvent at a concentration of 2.048 mg/mL and then serially diluted two-fold to provide the required concentrations.” left out

[9] = tested on: VAN and quinolone-resistant E. faecium; assay: MIC against drug-resistant strain; type: cell-based; conditions: Enterococcus faecium; E. faecium, VAN and quinolone-resistant; read-out: MIC
Method: as §3
as §2, with “All compounds including comparator drugs were dissolved in an appropriate solvent at a concentration of 2.048 mg/mL and then serially diluted two-fold to provide the required concentrations.” left out

[10] = tested on: VAN and quinolone-resistant S. pneumoniae; assay: MIC against drug-resistant strain; type: cell-based; conditions: Streptococcus pneumoniae; S. pneumoniae, VAN and quinolone-resistant; read-out: MIC
Method: as §3
as §2, with “All compounds including comparator drugs were dissolved in an appropriate solvent at a concentration of 2.048 mg/mL and then serially diluted two-fold to provide the required concentrations.” left out

[11] = tested on: protein synthesis (E. coli extract-based cell-free protein expression system); assay: In vitro transcription/translation assay (S30 T7 cell-free system, Renilla luciferase); type: biochemical; conditions: for IC50: E. coli S30 T7 cell-free transcription/translation, 1 h, 37 °C, read-out: IC50 Inhib. of Protein Synthesis
Method: The influence of hybrids OBP-4 and OBP-5 against protein synthesis was confirmed by the S30 T7 High-Yield Protein Expression System (Promega Co., Ltd.). The S30 T7 High-Yield Protein Expression System is an E. coli extract-based cell-free protein expression system, which can effectively transcribe and translate DNA fragments with a T7 promoter. The reaction system containing 1 μg plasmid DNA, 20 μL S30 Premix Plus and 18 μL T7 S30 Extract with or without compounds was incubated for 1 h at 37 °C with a rotational speed of 250 rpm, and terminated by cooling in ice for 5 min in a 96-well white multi-well plate. Then, 1.25 μL of the translation reaction mixture was added to 48.75 μL of Renilla Luciferase Assay Lysis Buffer, and mixed with 50 μL of Renilla Luciferase Assay Reagent (cat no. E2810; Promega). Renilla luciferase activity was measured on EnSpire® Multimode Plate Reader (PerkinElmer, Waltham, MA, USA). […] LZD was used as a positive control.

[12] = E. faecium, 47 clinical isolates

## C[C@H]1CCc2c(N3CCC(O)(COc4ccc(N5C[C@H](CO)OC5=O)cc4F)CC3)c(F)cc3c(=O)c(C(=O)O)cn1c23 [OBP-4]
VRE (13B330)
  MIC: 0.25 µg/mL (≈ 0.417 µM)
E. coli (ATCC25922)
  MIC: 4 µg/mL (≈ 6.67 µM)
E. faecalis (ATCC29212)
  MIC: 0.25 µg/mL (≈ 0.417 µM)
[1]
  MIC: 0.25 µg/mL (≈ 0.417 µM)
[2]
  MIC: 64 µg/mL (≈ 107 µM)
S. aureus (ATCC29213)
  MIC: 0.016 µg/mL (≈ 0.0267 µM)
[3]
  MIC: 0.031 µg/mL (≈ 0.0517 µM)
[4]; MIC 0.125 µg/mL
  Cumulative % of strains inhibited at MIC: 60.0%
  No. of strains inhibited at MIC: 4
[4]; MIC […]
  Cumulative % of strains inhibited at MIC: 100.0%
  No. of strains inhibited at MIC: 4
[4]; MIC ≤[…]
  Cumulative % of strains inhibited at MIC: 20.0%
  No. of strains inhibited at MIC: 2
[4]
  MIC50: 0.125 µg/mL (≈ 0.208 µM)
  MIC90: 0.25 µg/mL (≈ 0.417 µM)
  MIC: 0.0625 to 0.25 µg/mL (≈ 0.104 to 0.417 µM)
[5]; MIC 0.5 µg/mL
  Cumulative % of strains inhibited at MIC: 95.7%
  No. of strains inhibited at MIC: 37
[5]; MIC 1 µg/mL
  Cumulative % of strains inhibited at MIC: 97.9%
  No. of strains inhibited at MIC: 1
[5]; MIC 2 µg/mL
  Cumulative % of strains inhibited at MIC: 100.0%
  No. of strains inhibited at MIC: 1
[5]; MIC […]
  No. of strains inhibited at MIC: 8
[5]
  fold higher activity than comparator agents: 16- to 128 fold
[5]; [12]
  MIC Range: 0.25 to 2 µg/mL
MRSE
  MIC: ≤ 0.0625 µg/mL
[6]
  MIC: 1 µg/mL (≈ 1.67 µM)
CIP-resistant S. aureus
  MIC: 0.125 µg/mL (≈ 0.208 µM)
[7]
  MIC: 0.5 µg/mL (≈ 0.834 µM)
[8]
  MIC: 0.5 µg/mL (≈ 0.834 µM)
MRSA
  MIC: 0.25 µg/mL (≈ 0.417 µM)
[9]
  MIC: 0.5 µg/mL (≈ 0.834 µM)
[10]
  MIC: 0.25 µg/mL (≈ 0.417 µM)
[11]
  IC50: 5 µM

## CC1Sc2c(C(=O)O)c(=O)c3cc(F)c(N4CCC(O)(COc5ccc(N6C[C@H](CO)OC6=O)cc5F)CC4)cc3n21 (some centres unmarked) [OBP-5]
VRE (13B330)
  MIC: 0.5 µg/mL (≈ 0.828 µM)
E. coli (ATCC25922)
  MIC: 4 µg/mL (≈ 6.63 µM)
E. faecalis (ATCC29212)
  MIC: 1 µg/mL (≈ 1.66 µM)
[1]
  MIC: 0.25 µg/mL (≈ 0.414 µM)
[2]
  MIC: 64 µg/mL (≈ 106 µM)
S. aureus (ATCC29213)
  MIC: 0.25 µg/mL (≈ 0.414 µM)
[3]
  MIC: 0.062 µg/mL (≈ 0.103 µM)
[4]; MIC 0.125 µg/mL
  No. of strains inhibited at MIC: 2
[4]; MIC ≤[…]
  Cumulative % of strains inhibited at MIC: 80.0%
  No. of strains inhibited at MIC: 8
[4]
  MIC50: ≤ 0.0625 µg/mL
  MIC90: 0.125 µg/mL (≈ 0.207 µM)
  MIC: 0.0625 to 0.125 µg/mL (≈ 0.104 to 0.207 µM)
[5]; MIC 0.125 µg/mL
  Cumulative % of strains inhibited at MIC: 21.3%
  No. of strains inhibited at MIC: 7
[5]; MIC 0.5 µg/mL
  Cumulative % of strains inhibited at MIC: 97.9%
  No. of strains inhibited at MIC: 3
[5]; MIC 1 µg/mL
  Cumulative % of strains inhibited at MIC: 100.0%
  No. of strains inhibited at MIC: 1
[5]; MIC […]
  Cumulative % of strains inhibited at MIC: 91.5%
  No. of strains inhibited at MIC: 33
[5]; MIC ≤[…]
  Cumulative % of strains inhibited at MIC: 6.4%
  No. of strains inhibited at MIC: 3
[5]
  fold higher activity than comparator agents: 16- to 128 fold
[5]; [12]
  MIC Range: ≤0.0625 to 1 µg/mL
[5]; Enterococcus faecium, E. faecium, 47 clinical isolates, read-out: MIC50
  MIC50: 0.25 µg/mL (≈ 0.414 µM)
[5]; Enterococcus faecium, E. faecium, 47 clinical isolates, read-out: MIC90
  MIC90: 0.25 µg/mL (≈ 0.414 µM)
MRSE
  MIC: ≤ 0.0625 µg/mL
[6]
  MIC: 0.25 µg/mL (≈ 0.414 µM)
CIP-resistant S. aureus
  MIC: ≤ 0.0625 µg/mL
[7]
  MIC: ≤ 0.0625 µg/mL
[8]
  MIC: 0.125 µg/mL (≈ 0.207 µM)
MRSA
  MIC: 0.125 µg/mL (≈ 0.207 µM)
[9]
  MIC: 0.25 µg/mL (≈ 0.414 µM)
[10]
  MIC: ≤ 0.0625 µg/mL
[11]
  IC50: 2 µM
[11]; relative to IC50 of LZD
  protein synthesis inhibition, fold greater than LZD: 2.5 fold
